In PubChem BioAssay AID1963967 (Molecular Pharmacology Branch, DTP, NCI, 2024):

Test system: 855422-203-R-J1-PDC spheroids with HUVEC/MSC, viability
Experiment: Anticancer human tumor 855422-203-R-J1-PDC patient-derived bladder carcinoma cell line growth inhibition [PI3K]
Conditions: for IC50: curve of first compound; for viability, T/C: stronger effect = lower value
Outline: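 Three cell types, namely tumor cells, endothelial cells and mesenchymal stem cells, formed each spheroid. Combinations with four PI3K inhibitors were screened at clinically achievable concentrations decreasing by half-log, and spheroid viability was recorded.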

[1] = second compound 0.0316 µM, first compound 0.0316 µM
[2] = second compound 0.0316 µM, first compound 0.1 µM
[3] = second compound 0.0316 µM, first compound 0.316 µM
[4] = second compound 0.0316 µM, first compound 1 µM
[5] = second compound 0.0316 µM, first compound 3.16 µM
[6] = second compound 0.0316 µM, first compound 10 µM
[7] = second compound 0.1 µM, first compound 0.0316 µM
[8] = second compound 0.1 µM, first compound 0.1 µM
[9] = second compound 0.1 µM, first compound 0.316 µM
[10] = second compound 0.1 µM, first compound 1 µM
[11] = second compound 0.1 µM, first compound 3.16 µM
[12] = second compound 0.1 µM, first compound 10 µM
[13] = second compound 0.316 µM, first compound 0.0316 µM
[14] = second compound 0.316 µM, first compound 0.1 µM
[15] = second compound 0.316 µM, first compound 0.316 µM
[16] = second compound 0.316 µM, first compound 1 µM
[17] = second compound 0.316 µM, first compound 3.16 µM
[18] = second compound 0.316 µM, first compound 10 µM
[19] = second compound 1 µM, first compound 0.0316 µM
[20] = second compound 1 µM, first compound 0.1 µM
[21] = second compound 1 µM, first compound 0.316 µM
[22] = second compound 1 µM, first compound 1 µM
[23] = second compound 1 µM, first compound 3.16 µM
[24] = second compound 1 µM, first compound 10 µM
[25] = second compound 3.16 µM, first compound 0.0316 µM
[26] = second compound 3.16 µM, first compound 0.1 µM
[27] = second compound 3.16 µM, first compound 0.316 µM
[28] = second compound 3.16 µM, first compound 1 µM
[29] = second compound 3.16 µM, first compound 3.16 µM
[30] = second compound 3.16 µM, first compound 10 µM
[31] = second compound 10 µM, first compound 0.0316 µM
[32] = second compound 10 µM, first compound 0.1 µM
[33] = second compound 10 µM, first compound 0.316 µM
[34] = second compound 10 µM, first compound 1 µM
[35] = second compound 10 µM, first compound 3.16 µM
[36] = second compound 10 µM, first compound 10 µM
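Also: agents incubated with spheroids for one week before read-out.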
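For viability, T/C in this document: 100% = DMSO vehicle-treated control wells.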

In the case of `CC1(C)CCC(CN2CCN(c3ccc(C(=O)NS(=O)(=O)c4ccc(NCC5CCOCC5)c([N+](=O)[O-])c4)c(Oc4cnc5[nH]ccc5c4)c3)CC2)=C(c2ccc(Cl)cc2)C1` + CC(Nc1ccc2c(c1)OCCn1cc(N3C(=O)OCC3C(F)F)nc1-2)C(N)=O, the IC50 (second compound 0.00316 µM) is reported as 4.62 µM, the IC50 (second compound 0.01 µM) is reported as 4.48 µM and the IC50 (second compound 0.0316 µM) is reported as 4.75 µM. It also gave an IC50 (second compound 0.1 µM) of 4.65 µM, an IC50 (second compound 0.316 µM) of 1.93 µM and an IC50 (second compound 1 µM) of under 0.0316 µM. It also gave a viability, T/C (second compound 0.00316 µM, first compound 0.0316 µM) of 96.5%, a viability, T/C (second compound 0.00316 µM, first compound 0.1 µM) of 88.1% and a viability, T/C (second compound 0.00316 µM, first compound 0.316 µM) of 116%. It also gave a viability, T/C (second compound 0.00316 µM, first compound 1 µM) of 89.8%, a viability, T/C (second compound 0.00316 µM, first compound 3.16 µM) of 74% and a viability, T/C (second compound 0.00316 µM, first compound 10 µM) of 1.86%. For the same molecule, the viability, T/C (second compound 0.01 µM, first compound 0.0316 µM) was 85.4%, the viability, T/C (second compound 0.01 µM, first compound 0.1 µM) was 77.2% and the viability, T/C (second compound 0.01 µM, first compound 0.316 µM) was 95.1%. For the same molecule, the viability, T/C (second compound 0.01 µM, first compound 1 µM) was 96.9%, the viability, T/C (second compound 0.01 µM, first compound 3.16 µM) was 71% and the viability, T/C (second compound 0.01 µM, first compound 10 µM) was 1.5%. The viability, T/C [1] was 86.2%, the viability, T/C [2] was 82% and the viability, T/C [3] was 98.2%. For the same molecule, the viability, T/C [4] was 86%, the viability, T/C [5] was 75.8% and the viability, T/C [6] was 2.64%. The viability, T/C [7] was 68.3%, the viability, T/C [8] was 70.7% and the viability, T/C [9] was 84.6%. For the same molecule, the viability, T/C [10] was 72.1%, the viability, T/C [11] was 74.5% and the viability, T/C [12] was 2.65%. The viability, T/C [13] was 55.8%, the viability, T/C [14] was 55.2% and the viability, T/C [15] was 53.7%. For the same molecule, the viability, T/C [16] was 54.4%, the viability, T/C [17] was 46.8% and the viability, T/C [18] was 1.04%. For the same molecule, the viability, T/C [19] was 36.3%, the viability, T/C [20] was 35.2% and the viability, T/C [21] was 36.8%. It also gave a viability, T/C [22] of 34.2%, a viability, T/C [23] of 35% and a viability, T/C [24] of 1.55%.

Work on `C[C@@H](NC(=O)c1ncnc(N)c1Cl)c1ncc(C(=O)Nc2cc(C(F)(F)F)c(Cl)cn2)s1` + Cc1nc(NC(=O)N2CCCC2C(N)=O)sc1-c1ccnc(C(C)(C)C(F)(F)F)c1 yielded an IC50 (second compound 0.0316 µM) of over 10 µM, an IC50 (second compound 0.1 µM) of over 10 µM and an IC50 (second compound 0.316 µM) of over 10 µM. It also gave an IC50 (second compound 1 µM) of 4.57 µM, an IC50 (second compound 3.16 µM) of under 0.0316 µM and an IC50 (second compound 10 µM) of under 0.0316 µM. For the same molecule, the viability, T/C [1] was 97.8%, the viability, T/C [2] was 85.9% and the viability, T/C [3] was 118%. The viability, T/C [4] was 100%, the viability, T/C [5] was 118% and the viability, T/C [6] was 109%. It also gave a viability, T/C [7] of 72.7%, a viability, T/C [8] of 86.8% and a viability, T/C [9] of 104%. It also gave a viability, T/C [10] of 91.2%, a viability, T/C [11] of 111% and a viability, T/C [12] of 93.4%. The viability, T/C [13] was 73.1%, the viability, T/C [14] was 85.9% and the viability, T/C [15] was 94.3%. The viability, T/C [16] was 85.8%, the viability, T/C [17] was 94.6% and the viability, T/C [18] was 60.9%. For the same molecule, the viability, T/C [19] was 70.1%, the viability, T/C [20] was 67.2% and the viability, T/C [21] was 51.2%. The viability, T/C [22] was 68.6%, the viability, T/C [23] was 62.3% and the viability, T/C [24] was 23.4%. For the same molecule, the viability, T/C [25] was 39.3%, the viability, T/C [26] was 44.6% and the viability, T/C [27] was 30.9%. For the same molecule, the viability, T/C [28] was 42.8%, the viability, T/C [29] was 33.5% and the viability, T/C [30] was 14.3%. It also gave a viability, T/C [31] of 25%, a viability, T/C [32] of 18.9% and a viability, T/C [33] of 24.3%. For the same molecule, the viability, T/C [34] was 18.8%, the viability, T/C [35] was 11.7% and the viability, T/C [36] was 4.33%.

`CC1(C)CCC(Nc2ncc(C(F)(F)F)c(-c3c[nH]c4c(P(C)(C)=O)c(C#N)ccc34)n2)CN1` (stereo unspecified) + CC(Nc1ncnc2nc[nH]c12)c1cc2cccc(Cl)c2c(=O)n1-c1ccccc1 showed an IC50 (second compound 0.0316 µM) of under 0.0316 µM, an IC50 (second compound 0.1 µM) of under 0.0316 µM and an IC50 (second compound 0.316 µM) of under 0.0316 µM. The IC50 (second compound 1 µM) was under 0.0316 µM, the IC50 (second compound 3.16 µM) was under 0.0316 µM and the IC50 (second compound 10 µM) was under 0.0316 µM. The viability, T/C [1] was 30.3%, the viability, T/C [2] was 24.1% and the viability, T/C [3] was 25%. It also gave a viability, T/C [4] of 26.8%, a viability, T/C [5] of 28.9% and a viability, T/C [6] of 3.47%. The viability, T/C [7] was 27.4%, the viability, T/C [8] was 25% and the viability, T/C [9] was 24.6%. It also gave a viability, T/C [10] of 27%, a viability, T/C [11] of 30.2% and a viability, T/C [12] of 5.41%. The viability, T/C [13] was 27.2%, the viability, T/C [14] was 24.9% and the viability, T/C [15] was 23.8%. The viability, T/C [16] was 27.5%, the viability, T/C [17] was 31.6% and the viability, T/C [18] was 4.23%. The viability, T/C [19] was 24.2%, the viability, T/C [20] was 28.2% and the viability, T/C [21] was 27.2%. For the same molecule, the viability, T/C [22] was 26.7%, the viability, T/C [23] was 26% and the viability, T/C [24] was 5.15%. It also gave a viability, T/C [25] of 23%, a viability, T/C [26] of 23.1% and a viability, T/C [27] of 24.6%. For the same molecule, the viability, T/C [28] was 23.9%, the viability, T/C [29] was 26.6% and the viability, T/C [30] was 2.74%. For the same molecule, the viability, T/C [31] was 23.8%, the viability, T/C [32] was 21.4% and the viability, T/C [33] was 18.8%. It also gave a viability, T/C [34] of 23.7%, a viability, T/C [35] of 18.9% and a viability, T/C [36] of 1.26%.
